According to DBAASP:
≈ marks a conversion by molar mass, not a printed value. Where “and” joins values, the source holds several entries; their conditions need not be identical. Equal values may be shown once.

What was measured:
Assay in all cases: ≥ marks a high value that may be exact or a test limit, other limits are often not marked, values filed in µg/mL are converted to µM
[1] = system: Pseudomonas syringae pv. syringae DSM 10604
[2] = system: Pseudomonas syringae pv. tomato DC3000
[3] = system: Pectobacterium carotovorum subsp. carotovorum DSM 30168
[4] = system: Pseudomonas corrugata DSM 7228
[5] = system: Staphylococcus aureus 90857
[6] = system: Xanthomonas vesicatoria DSM 50861
[7] = system: Clavibacter michiganensis subsp. michiganensis DSM 46294
[8] = system: Escherichia coli BL21
[9] = system: Bacillus subtilis ISW 1214
[10] = system: Salmonella enterica subsp. enterica serovar Enteritidis ATCC 13076
[11] = system: Bacillus subtilis ATCC 62037
[12] = system: Saccharomyces cerevisiae ATCC 44774
[13] = system: Pseudomonas putida ATCC 17426
[14] = system: Streptococcus mutans ATCC 25175
[15] = system: Escherichia coli ATCC 27325
[16] = system: Candida albicans ATCC 10231
[17] = system: Staphylococcus aureus ATCC 15752
[18] = system: Cryptococcus neoformans ATCC 34881
[19] = system: Pseudomonas aeruginosa ATCC 27853
[20] = system: Salmonella typhimurium KCTC 2370
[21] = system: Enterococcus faecalis ATCC 29212
[22] = system: Bacillus subtilis KCTC 3038
[23] = system: Micrococcus luteus ATCC 10240
[24] = system: Staphylococcus aureus USA 100
[25] = system: Staphylococcus aureus SPM 101
[26] = system: Staphylococcus aureus USA 300
[27] = system: Pseudomonas aeruginosa ATCC 9027
[28] = system: Staphylococcus aureus NBRC 100910
[29] = system: Escherichia coli SPE 001
[30] = system: Candida albicans ATCC 90028
[31] = system: Cladosporium herbarum
[32] = system: Botrytis cinerea
[33] = system: Alternaria alternata
[34] = system: Staphylococcus aureus 930918-3
[35] = system: Listeria monocytogenes EGD
[36] = system: Pseudomonas aeruginosa MR3007
[37] = system: Candida albicans
[38] = system: Neisseria gonorrhoeae FA19
[39] = system: Escherichia coli ML-35p
[40] = system: Neisseria gonorrhoeae F62
[41] = system: Bacillus subtilis

Question: How did the MIC [1] turn out when CC[C@H](C)[C@H](NC(=O)[C@@H](NC(=O)[C@H](CCCCN)NC(=O)[C@H](CCCCN)NC(=O)[C@@H](NC(=O)[C@@H](NC(=O)[C@H](CCCCN)NC(=O)[C@@H](NC(=O)[C@H](CCCCN)NC(=O)[C@H](CCCCN)NC(=O)[C@H](CCCCN)NC(=O)[C@@H](N)CCCN=C(N)N)[C@@H](C)CC)[C@@H](C)CC)[C@@H](C)CC)[C@@H](C)CC)C(N)=O [RKKKIKIIKKII] was run?
Answer: Its MIC is 0.331 µM (≈ 0.5 µg/mL).

Question: And the MIC [2]?
Answer: The MIC was 3.31 µM (≈ 5 µg/mL).

Question: What about the MIC [3] of the same molecule?
Answer: The MIC was 6.63 µM (≈ 9.99 µg/mL).

Question: What about the MIC [4] of the same molecule?
Answer: Its MIC is 3.31 µM (≈ 5 µg/mL).

Question: And the MIC [5]?
Answer: The MIC was no less than 62.5 µM.

Question: What about the MIC [6] of the same molecule?
Answer: Its MIC is 1.66 µM (≈ 2.5 µg/mL).

Question: And the MIC [7]?
Answer: The MIC was 1.66 µM (≈ 2.5 µg/mL).

Question: With CC(=O)NCC(=O)N[C@@H](Cc1c[nH]c2ccccc12)C(=O)N[C@@H](CC(C)C)C(=O)N[C@@H](CCC(N)=O)C(=O)N[C@@H](CC(C)C)C(=O)N[C@@H](C)C(=O)N[C@@H](CCC(N)=O)C(=O)N[C@@H](Cc1cnc[nH]1)C(=O)N[C@@H](CC(C)C)C(=O)N[C@@H](CC(C)C)C(=O)N[C@@H](CCC(N)=O)C(=O)N[C@@H](CC(C)C)C(=O)NCC(=O)N[C@@H](CCC(N)=O)C(=O)N[C@@H](Cc1cnc[nH]1)C(=O)N[C@@H](CC(C)C)C(=O)N[C@@H](CC(C)C)C(=O)N[C@@H](CCC(N)=O)C(=O)N[C@@H](CC(C)C)C(=O)N[C@@H](C)C(=O)N[C@@H](CCC(N)=O)C(=O)N[C@@H](CCC(N)=O)C(=O)N[C@@H](CC(C)C)C(=O)N[C@@H](CCCN=C(N)N)C(=O)N[C@@H](CCCN=C(N)N)C(=O)N[C@@H](CCCN=C(N)N)C(N)=O [GWLQLAQHLLQLGQHLLQLAQQLRRR] as the molecule, how does the MIC [8] read?
Answer: The MIC was no less than 160 µM.

Question: And the MIC [9]?
Answer: The MIC was 2.5 µM (≈ 7.9 µg/mL).

Question: For CC[C@H](C)[C@H](NC(=O)[C@@H]1CCCN1C(=O)[C@H](Cc1c[nH]c2ccccc12)NC(=O)[C@H](CCC(N)=O)NC(=O)[C@H](CCCN=C(N)N)NC(=O)[C@@H](NC(=O)[C@@H](NC(=O)[C@@H](N)CCCN=C(N)N)C(C)C)C(C)C)C(=O)NCC(=O)N[C@@H](CCCN=C(N)N)C(=O)N[C@H](C(=O)N[C@H](C(=O)N[C@@H](CCCN=C(N)N)C(=O)N[C@@H](CCCN=C(N)N)C(=O)N[C@H](C(=O)N[C@H](C(=O)N[C@@H](CCCN=C(N)N)C(=O)N[C@@H](CCCN=C(N)N)C(=O)N[C@H](C(=O)N[C@H](C(=O)N[C@@H](CCCN=C(N)N)C(=O)N[C@@H](CC(C)C)C(=O)O)C(C)C)C(C)C)C(C)C)C(C)C)C(C)C)C(C)C [RVVRQWPIGRVVRRVVRRVVRL], which MIC [10] is on record?
Answer: The MIC was 1.45 µM (≈ 4 µg/mL).

Question: What about the MIC [11] of the same molecule?
Answer: Its MIC is 0.726 µM (≈ 2 µg/mL).

Question: What about the MIC [12] of the same molecule?
Answer: Its MIC is 0.726 µM (≈ 2 µg/mL).

Question: What about the MIC [13] of the same molecule?
Answer: The MIC was 1.45 µM (≈ 4 µg/mL).

Question: And the MIC [14]?
Answer: Its MIC is 0.726 µM (≈ 2 µg/mL).

Question: And the MIC [15]?
Answer: The MIC was 0.726 µM (≈ 2 µg/mL).

Question: And the MIC [16]?
Answer: The MIC was 0.726 µM (≈ 2 µg/mL).

Question: What about the MIC [17] of the same molecule?
Answer: Its MIC is 0.726 µM (≈ 2 µg/mL).

Question: How did the MIC [18] turn out when CC(C)[C@H](NC(=O)CNC(=O)[C@H](CCC(N)=O)NC(=O)[C@@H](NC(=O)[C@@H](NC(=O)[C@@H]1CCCN1C(=O)[C@H](CCCN=C(N)N)NC(=O)[C@@H](NC(=O)[C@@H](NC(=O)[C@@H](N)CCCN=C(N)N)C(C)C)C(C)C)C(C)C)C(C)C)C(=O)N[C@@H](CCCCN)C(=O)N[C@@H](CCC(N)=O)C(=O)N[C@@H](CCCCN)C(=O)N[C@H](C(=O)N[C@@H](CCCN=C(N)N)C(=O)O)C(C)C [RVVRPVVQGVKQKVR] was run?
Answer: Its MIC is no less than 36.6 µM.

Question: What about the MIC [12] of the same molecule?
Answer: Its MIC is 18.3 µM (≈ 32 µg/mL).

Question: And the MIC [19]?
Answer: Its MIC is 9.15 µM (≈ 16 µg/mL).

Question: And the MIC [20]?
Answer: The MIC was no less than 36.6 µM.

Question: And the MIC [21]?
Answer: Its MIC is greater than 36.6 µM.

Question: What about the MIC [22] of the same molecule?
Answer: Its MIC is no less than 36.6 µM.

Question: What about the MIC [15] of the same molecule?
Answer: The MIC was no less than 36.6 µM.

Question: And the MIC [16]?
Answer: The MIC was 36.6 µM (≈ 64 µg/mL).

Question: What about the MIC [17] of the same molecule?
Answer: Its MIC is no less than 36.6 µM.

Question: And the MIC [23]?
Answer: The MIC was no less than 36.6 µM.

Question: How did the MIC [24] turn out when CC(C)C[C@H](NC(=O)[C@H](CCCCN)NC(=O)[C@H](CC(C)C)NC(=O)[C@H](CC(C)C)NC(=O)[C@H](CC(C)C)NC(=O)[C@H](CCCCN)NC(=O)[C@H](CC(C)C)NC(=O)[C@@H](N)CCCCN)C(=O)N[C@@H](CCCCN)C(N)=O [KLKLLLKLK] was run?
Answer: Its MIC is no less than 50 µM.

Question: What about the MIC [25] of the same molecule?
Answer: Its MIC is 1.82 µM (≈ 2 µg/mL).

Question: What about the MIC [26] of the same molecule?
Answer: Its MIC is no less than 50 µM.

Question: What about the MIC [27] of the same molecule?
Answer: Its MIC is 12.5 µM (≈ 13.7 µg/mL).

Question: And the MIC [28]?
Answer: Its MIC is no less than 117 µM.

Question: And the MIC [29]?
Answer: Its MIC is 7.3 µM (≈ 7.99 µg/mL).

Question: What about the MIC [30] of the same molecule?
Answer: Its MIC is no less than 100 µM.

Question: Which MIC [1] does the source give for CC(C)C[C@H](NC(=O)[C@H](C)NC(=O)CNC(=O)[C@H](CCCN=C(N)N)NC(=O)[C@H](Cc1ccccc1)NC(=O)[C@H](C)NC(=O)[C@H](CCCN=C(N)N)NC(=O)[C@H](Cc1ccccc1)NC(=O)[C@H](C)NC(=O)[C@H](C)NC(=O)[C@H](CC(C)C)NC(=O)[C@H](CCCN=C(N)N)NC(=O)[C@H](CCCN=C(N)N)NC(=O)[C@@H](N)CCCCN)C(=O)N[C@@H](CCCCN)C(=O)N[C@@H](CO)C(=O)N[C@H](C(=O)N[C@@H](CC(C)C)C(=O)N[C@@H](CCCCN)C(=O)N[C@@H](CCCCN)C(N)=O)C(C)C [KRRLAAFRAFRGALKSVLKK] here?
Answer: The MIC was 2.16 µM (≈ 5 µg/mL).

Question: And the MIC [31]?
Answer: The MIC was 8.63 µM (≈ 20 µg/mL).

Question: What about the MIC [2] of the same molecule?
Answer: The MIC was 2.16 µM (≈ 5 µg/mL).

Question: And the MIC [32]?
Answer: The MIC was no less than 43.2 µM.

Question: And the MIC [3]?
Answer: The MIC was 17.3 µM (≈ 40 µg/mL).

Question: What about the MIC [4] of the same molecule?
Answer: Its MIC is 1.08 µM (≈ 2.5 µg/mL).

Question: And the MIC [6]?
Answer: Its MIC is 2.16 µM (≈ 5 µg/mL).

Question: What about the MIC [33] of the same molecule?
Answer: Its MIC is no less than 43.2 µM.

Question: What about the MIC [7] of the same molecule?
Answer: Its MIC is 2.16 µM (≈ 5 µg/mL).

Question: How did the MIC [34] turn out when CC(C)C[C@H](N)C(=O)N[C@H]1CSSC[C@@H](C(=O)N[C@H](C(N)=O)C(C)C)NC(=O)[C@H](C(C)C)NC(=O)[C@@H]2CSSC[C@H](NC(=O)[C@H](Cc3ccc(O)cc3)NC1=O)C(=O)N[C@@H](CCCN=C(N)N)C(=O)N[C@@H](CCCN=C(N)N)C(=O)N[C@@H](CCCN=C(N)N)C(=O)N[C@@H](Cc1ccccc1)C(=O)N2 [LCYCRRRFCVCV] was run?
Answer: The MIC was 0.33 µM and 0.4 µM.

Question: And the MIC [35]?
Answer: The MIC was 0.26 µM and 0.55 µM.

Question: And the MIC [36]?
Answer: Its MIC is 0.2 µM and 0.29 µM.

Question: What about the MIC [37] of the same molecule?
Answer: Its MIC is 7.58 µM (≈ 11.5 µg/mL).

Question: What about the MIC [38] of the same molecule?
Answer: The MIC was 1.34 µM (≈ 2.03 µg/mL).

Question: And the MIC [39]?
Answer: Its MIC is 0.28 µM and 0.26 µM.

Question: And the MIC [40]?
Answer: The MIC was 0.64 µM (≈ 0.97 µg/mL).

Question: And the MIC [41]?
Answer: Its MIC is 0.22 µM and 0.21 µM.
